Results as given in ChEMBL document CHEMBL3853278, “Metabolomic Profiling Reveals the N-Acyl-Taurine Geodiataurine in Extracts from the Marine Sponge Geodia macandrewii (Bowerbank)” (J Nat Prod, 2016).

Assay: Cytotoxicity in human A2058 cells assessed as reduction in cell viability after 72 hrs by cell titer 96 aqueous one assay
Assay type: functional, cell-based
Conditions: A2058, 72 h

For `CC(C)=CCC/C(C)=C/CC/C(C)=C/CCC(C)C(=O)NCCS(=O)(=O)O` (stereo unspecified), the IC50 was 8.5 µM.
